Entries after “also recorded” stand apart in the source; their conditions may differ. Where two headings read alike, the source gives them in different places.
Experiments:
[1] = system: RD cell line (human rhabdomyosarcoma); assay: MTT assay, antiproliferative activity against RD cell line; assay type: cell-based; conditions: for IC50: Homo sapiens, RD, MTT, 24 hour treatment
Description: (§1) RD and CC-1 cell lines were cultured in DMEM supplemented with 10% heat inactivated fetal bovine serum (FBS), 3% glutamine, sodium bicarbonate and antibiotic (penicillin/streptomycin). The cells were incubated at 37° C. in a humidified CO2 incubator.
Antiproliferative activities of inoscavin A against RD and CC-1 cells were determined using MTT (3, 4, 5-(dimethyl-thiazol-2-yl) 2-5-diphenyl tetrazolium bromide) assay. Metabolically active cells reduce MTT in to purple colored formazan crystals. Adherent cell lines were transferred with 0.12% trypsin and 0.5% EDTA and cells (2×10^5 cells/well) were seeded in 24-well plates and incubated overnight with 1 mL of the DMEM medium described above. The stock solution of inoscavin A was prepared in DMSO at a concentration of 1 mg/ml and subsequently diluted up to 1000 ng/ml in order to prepare the working standards. The resulting monolayers of RD cells and CC-1 cells (70% confluence) were treated with different concentrations of the test solution and incubated for 24 hours at 37° C.
In all experiments, cycloheximide (5 mM, 50 μl) was used as the positive control and negative control contained 0.25% DMSO in growth media. The culture medium was replaced with fresh medium (1 ml) after 24 hours and MTT (5 mg/ml; 100 μl) was added to each well. The cells were incubated at 37° C. for 3 hours and the medium was aspirated carefully. The remaining formazan crystals were solubilized with 750 μl of 0.05 M HCl (in 2-propanol) and absorbance was measured at 570 nm. Percentage cell viability was determined using the equation below.
(§2) The net absorbance from the wells of the untreated cells (negative control) was taken as the 100% viability. IC50 of the test solution against RD cells was determined by regression analysis of the corresponding dose response curve. CC50 of the test solution against CC-1 cell line was also calculated using the regression analysis. Safety of the compound for normal cells was determined in terms of selectivity index (SI) by calculating the ratio of CC50/IC50. SI value>2 is considered as safe.

[2] = system: CC-1 cell line (normal epithelial cells); assay: MTT assay, cytotoxicity against normal CC-1 cell line; assay type: cell-based, mice; conditions: CC50 in CC-1 cells / IC50 in RD cells
Description: as §1
Antiproliferative activities of inoscavin A against RD and CC-1 cells were determined using MTT (3, 4, 5-(dimethyl-thiazol-2-yl) 2-5-diphenyl tetrazolium bromide) assay. Metabolically active cells reduce MTT in to purple colored formazan crystals. Adherent cell lines were transferred with 0.12% trypsin and 0.5% EDTA and cells (2×10^5 cells/well) were seeded in 24-well plates and incubated overnight with 1 mL of the DMEM medium described above. […]
In all experiments, cycloheximide (5 mM, 50 μl) was used as the positive control and negative control contained 0.25% DMSO in growth media. […] The remaining formazan crystals were solubilized with 750 μl of 0.05 M HCl (in 2-propanol) and absorbance was measured at 570 nm. Percentage cell viability was determined using the equation below.
as §2, with “Safety of the compound for normal cells was determined in terms of selectivity index (SI) by calculating the ratio of CC50/IC50. SI value>2 is considered as safe.” left out

RD cells [3] = assay: Ethidium bromide/acridine orange staining for apoptosis; assay type: cell-based, human; conditions: 24 hours
Description: Ethidium bromide and acridine orange staining were performed to investigate the apoptosis induced by inoscavin A against RD cells. Ethidium bromide (EB) is only occupied by cells with damaged cell membranes. Acridine orange (AO) permeates via both live and dead cells. Cells were seeded in chamber slides and the confluent layer was treated with the test solution containing inoscavin A at different concentrations for 24 hours at 37° C. as described previously. The adherent cells were washed with 200 μL of PBS and 2 μL of the dye mixture containing ethidium bromide ([…]) and acridine orange ([…]) was placed on each well of the chamber slide. Chamber slides were examined immediately under the fluorescence microscope. Images were photographed using a Nikon D 700 camera connected to the microscope.

RD cells [4] = assay: Microscopic examination of morphological changes of treated cells; assay type: cell-based, human; conditions: highest concentration 50 ng/mL, 24 hours
Description: The morphological changes of RD cells and CC-1 cells after the treatment with different concentrations of the test solution over 24 hours were detected by microscopic examination of cells. Morphological changes were compared with the negative and positive controls under fluorescence microscope.

## CC1=CC(=O)C2(O1)c1c(cc(/C=C/c3ccc(O)c(O)c3)oc1=O)OC2c1ccc(O)c(O)c1 (stereo not shown) [inoscavin A, 2-(3,4-dihydroxyphenyl)-6-[(E)-2-(3,4-dihydroxyphenyl)ethenyl]-5′-methylspiro[2H-furo[3,2-c]pyran-3,2′-furan]-3′,4-dione]
[1]; mean of three independent sample preparations, read-out: IC50 against RD cells
  IC50: 28 nM
[1]; read-out: IC50 against RD cell line
  IC50: 0.0128 µg/mL
[1]; RD cells, concentrations over 60 ng/mL to 100 ng/mL
  maximum inhibition of cell growth: 75%
[1]; RD cells, inoscavin A versus mangiferin
  antiproliferative activity relative to mangiferin: approximately 2500 times
[2]
  selectivity index (SI), ratio of CC50/IC50: 6185.18
RD cells [3]
  apoptosis induction (AO/EB staining): confirmed the apoptosis induced by inoscavin A; also recorded: mediated through apoptosis
RD cells [4]
  morphological changes of RD cells: detached and round shape dead cells

— patent publication US10501472B2, “Method to isolate inoscavin a from Fulviformes fastuosus and medicinal preparation thereof to treat rhabdomyosarcoma cancer conditions” (University of Colombo, priority 2015, dated 2019)
